Values after ≈ are worked out from the molar mass of the structure shown. Where two headings read alike, the source gives them in different places.
Experiments:
Type in all cases: cell-based
[1] = system: Staphylococcus aureus 209P strain; test: MIC for Staphylococcus aureus 209P strain; conditions: Staphylococcus aureus, read-out: MIC Straphyrococcus aureus 209P
[2] = system: Staphylococcus aureus MRSA No. 17 (methicillin-resistant Staphylococcus aureus: MRSA); test: MIC for Staphylococcus aureus MRSA No. 17; conditions: read-out: MIC Straphyrococcus aureus MRSA No. 17 (MRSA)
[3] = system: Clostridium perfringens PB6K strain; test: microbe, parasite or virus in culture; conditions: Clostridium perfringens, PB6KSTRAIN, read-out: MIC Clostridium perfringens PB6K, PB6K strain; CD medium, 37° C. overnight, 10% CO2-containing anaerobic conditions
[4] = system: Clostridium difficile JCM1296 strain; test: microbe, parasite or virus in culture; conditions: Clostridioides difficile, JCM1296, read-out: MIC Clostridium difficile JCM1296
[5] = system: Escherichia coli BE1121 strain; test: MIC for Escherichia coli BE1121 strain; conditions: Escherichia coli, BE1121STRAIN, read-out: MIC Escherichia coli BE1121
[6] = system: Enterococcus faecalis 5038 strain; test: MIC for Enterococcus faecalis 5038 strain; conditions: read-out: MIC Enterococcus faecalis 5038
[7] = system: Enterococcus faecalis NCTC12201 strain (vancomycin-resistant Enterococcus: VRE); test: MIC for Enterococcus faecalis NCTC12201 strain (VRE); conditions: read-out: MIC Enterococcus faecalis NCTC 12201 (VRE)
[8] = system: Staphylococcus aureus Smith strain; test: MIC for Staphylococcus aureus Smith strain; conditions: read-out: MIC Straphyrococcus aureus Smith
[9] = system: Escherichia coli K-12 strain; test: MIC for Escherichia coli K-12 strain; conditions: Escherichia coli, K12STRAIN, read-out: MIC Escherichia coli K12
[10] = 209P strain, regular bouillon medium, 37° C. overnight, turbidity
[11] = MRSA No. 17, regular bouillon medium, 37° C. overnight, turbidity
[12] = BE1121 strain, regular bouillon medium, 37° C. overnight, turbidity
[13] = 5038 strain, Heart Infusion Broth medium, 37° C. overnight, turbidity
[14] = NCTC12201 strain (VRE), Heart Infusion Broth medium, 37° C. overnight, turbidity
[15] = Smith strain, regular bouillon medium, 37° C. overnight, turbidity
[16] = K-12 strain, regular bouillon medium, 37° C. overnight, turbidity

Compound	MIC [1, 10] [µg/mL]	MIC [2, 11] [µg/mL]	MIC [3] [µg/mL]	MIC [4] [µg/mL]	MIC [5, 12] [µg/mL]	MIC [6, 13] [µg/mL]	MIC [7, 14] [µg/mL]	MIC [8, 15] [µg/mL]	MIC [9, 16] [µg/mL]	MIC ([2]; MRSA) [µg/mL]	MIC ([6]; 5038STRAIN) [µg/mL]	MIC [7] [µg/mL]	MIC [8] [µg/mL]	MIC ([1]; 209P) [µg/mL]	MIC [5] [µg/mL]	MIC [9] [µg/mL]	MIC ([7]; NCTC12201|VRE) [µg/mL]
CCCCCCCCOCC(O)=C1C(=O)N(C(C)=O)c2ccccc21 [A057, N-acetyl-3-octyloxyacetyl-2-oxyindole]	8 (≈ 23.2 µM)	16 (≈ 46.3 µM)	0.5 (≈ 1.45 µM)	0.25 (≈ 0.724 µM)	128 (≈ 371 µM)	1 (≈ 2.89 µM)	2 (≈ 5.79 µM)	1 (≈ 2.89 µM)	128 (≈ 371 µM)								
CCCCc1ccc(COCC(=O)c2c(O)c3ccccc3oc2=O)cc1 [B024, 3-(4-butylphenylmethoxyl)acetyl-4-hydroxycoumarin]	4 (≈ 10.9 µM)		1 (≈ 2.73 µM)	0.25 (≈ 0.682 µM)	2 (≈ 5.46 µM)				256 (≈ 699 µM)	64 (≈ 175 µM)	2 (≈ 5.46 µM)	2 (≈ 5.46 µM)	8 (≈ 21.8 µM)				
CCCCCCCCC(O)=C1C(=O)N(C(=O)Nc2ccccc2)c2ccc(F)cc21 [A059, N-(phenylaminocarbonyl)-5-fluoro-3-nonanoyl-2-oxyindole]		64 (≈ 156 µM)	4 (≈ 9.74 µM)	8 (≈ 19.5 µM)		0.5 (≈ 1.22 µM)	25 (≈ 60.9 µM)	0.5 (≈ 1.22 µM)						64 (≈ 156 µM)	256 (≈ 624 µM)	128 (≈ 312 µM)	
CCCCCCCCCCSCC(=O)c1c(O)c2cc(F)ccc2oc1=O [B027]	2 (≈ 5.07 µM)		0.25 (≈ 0.634 µM)	< 0.125	4 (≈ 10.1 µM)				256 (≈ 649 µM)	1 (≈ 2.53 µM)	0.25 (≈ 0.634 µM)		0.25 (≈ 0.634 µM)				< 0.125
CCCCCCCCCC(O)=C1C(=O)N(C(=O)Nc2ccc(OC)cc2)c2ccccc21 [A046, N-(4-methoxyphenylaminocarbonyl)-3-decanoyl-2-oxyindole]	256 (≈ 586 µM)	256 (≈ 586 µM)	8 (≈ 18.3 µM)	1 (≈ 2.29 µM)	256 (≈ 586 µM)	256 (≈ 586 µM)	256 (≈ 586 µM)	256 (≈ 586 µM)	256 (≈ 586 µM)								
CCCCC1CCC(C(O)=C2C(=O)N(C(=O)Nc3ccc(F)cc3)c3ccccc32)CC1 (stereo not drawn) [A043, N-(4-fluorophenylaminocarbonyl)-3-(4-butylcyclohexylcarbonyl)-2-oxyindole]	256 (≈ 586 µM)	128 (≈ 293 µM)	4 (≈ 9.16 µM)	1 (≈ 2.29 µM)	256 (≈ 586 µM)	1 (≈ 2.29 µM)	1 (≈ 2.29 µM)	1 (≈ 2.29 µM)	256 (≈ 586 µM)								
CCCCCCCCCCOCC(O)=C1C(=O)N(C(=O)Nc2ccc(OC)cc2)c2ccc(F)cc21 [A047, N-(4-methoxyphenylaminocarbonyl)-3-decyloxyacetyl-5-fluoro-2-oxyindole]	128 (≈ 257 µM)	128 (≈ 257 µM)	0.25 (≈ 0.501 µM)	1 (≈ 2.01 µM)	128 (≈ 257 µM)	4 (≈ 8.02 µM)	16 (≈ 32.1 µM)	8 (≈ 16 µM)	128 (≈ 257 µM)								
CCCCCCCCCCOCC(=O)c1c(O)c2cc(Cl)ccc2oc1=O [B028, 3-decyloxyacetyl-6-chloro-4-hydroxycoumarin]	128 (≈ 324 µM)	256 (≈ 648 µM)	0.25 (≈ 0.633 µM)	0.25 (≈ 0.633 µM)	256 (≈ 648 µM)	256 (≈ 648 µM)	256 (≈ 648 µM)	8 (≈ 20.3 µM)	256 (≈ 648 µM)								
CCCCCCCCCCOCC(O)=C1C(=O)N(C(=O)Nc2ccccc2)c2ccc(F)cc21 [A036]	128 (≈ 273 µM)	128 (≈ 273 µM)	0.25 (≈ 0.534 µM)	0.25 (≈ 0.534 µM)	128 (≈ 273 µM)	0.5 (≈ 1.07 µM)	0.5 (≈ 1.07 µM)	0.25 (≈ 0.534 µM)	128 (≈ 273 µM)								
CCCCCCCCCC(=O)N1C(=O)/C(=C(\O)c2ccccc2)c2cc(F)ccc21 [A052, N-decanoyl-3-benzoyl-5-fluoro-2-oxyindole]	64 (≈ 156 µM)		0.5 (≈ 1.22 µM)	0.5 (≈ 1.22 µM)	128 (≈ 313 µM)				256 (≈ 625 µM)	64 (≈ 156 µM)	0.25 (≈ 0.61 µM)	0.5 (≈ 1.22 µM)	0.5 (≈ 1.22 µM)				
CCCCCCCCCC(=O)N1C(=O)C(=C(C)O)c2ccccc21 [A022, N-decanoyl-3-acetyl-2-oxyindole]	8 (≈ 24.3 µM)	4 (≈ 12.1 µM)	4 (≈ 12.1 µM)	0.25 (≈ 0.759 µM)	16 (≈ 48.6 µM)	1 (≈ 3.04 µM)	1 (≈ 3.04 µM)	2 (≈ 6.07 µM)	128 (≈ 389 µM)								
CCCCCCCCCC(=O)NCC(=O)c1c(O)c2ccccc2oc1=O [B016, 3-decanoylaminoacetyl-4-hydroxycoumarin]	256 (≈ 686 µM)	256 (≈ 686 µM)	16 (≈ 42.8 µM)	8 (≈ 21.4 µM)	256 (≈ 686 µM)	256 (≈ 686 µM)	256 (≈ 686 µM)	256 (≈ 686 µM)	256 (≈ 686 µM)								
CCCCCCCCCC(=O)N1C(=O)/C(=C(/C)O)c2cc(F)ccc21 [A051, N-decanoyl-3-acetyl-5-fluoro-2-oxyindole]		4 (≈ 11.5 µM)	8 (≈ 23 µM)	1 (≈ 2.88 µM)		0.5 (≈ 1.44 µM)	0.25 (≈ 0.72 µM)	0.5 (≈ 1.44 µM)						4 (≈ 11.5 µM)	2 (≈ 5.76 µM)	56 (≈ 161 µM)	
CCCCCCCCNC(=O)c1c(O)c2ccccc2oc1=O [B020, 3-(octylaminocarbonyl)-4-hydroxycoumarin]	8 (≈ 25.2 µM)	16 (≈ 50.4 µM)	8 (≈ 25.2 µM)	1 (≈ 3.15 µM)	32 (≈ 101 µM)	1 (≈ 3.15 µM)	1 (≈ 3.15 µM)	8 (≈ 25.2 µM)	64 (≈ 202 µM)								
CCCCCCCCCCOCC(O)=C1C(=O)N(C(=O)OC(C)(C)C)c2ccc(F)cc21 [A055, N-Boc-3-decyloxyacetyl-5-fluoro-2-oxyindole]	128 (≈ 285 µM)	128 (≈ 285 µM)	2 (≈ 4.45 µM)	0.25 (≈ 0.556 µM)	256 (≈ 569 µM)	128 (≈ 285 µM)	128 (≈ 285 µM)	128 (≈ 285 µM)	256 (≈ 569 µM)								
CCCCCCCCCC(=O)c1c(O)c2cc(C)ccc2oc1=O [B012, 3-decanoyl-6-methyl-4-hydroxycoumarin]	0.5 (≈ 1.51 µM)	0.5 (≈ 1.51 µM)	0.5 (≈ 1.51 µM)	0.25 (≈ 0.757 µM)	256 (≈ 775 µM)	0.25 (≈ 0.757 µM)	0.25 (≈ 0.757 µM)	0.5 (≈ 1.51 µM)	256 (≈ 775 µM)								
CC(=O)N1C(=O)C(=C(O)CCCCCCCCCBr)c2ccccc21 [A024, N-acetyl-3-(10-bromodecanoyl)-2-oxyindole]		16 (≈ 39.2 µM)	0.5 (≈ 1.22 µM)	0.5 (≈ 1.22 µM)		0.5 (≈ 1.22 µM)	1 (≈ 2.45 µM)	4 (≈ 9.8 µM)						16 (≈ 39.2 µM)	16 (≈ 39.2 µM)	128 (≈ 313 µM)	

Source: patent publication US9512075B2 (OKAYAMA UNIVERSITY, priority 2012, dated 2016)
